molecular target: T1, androgen receptor (Homo sapiens, UniProt P10275); experiment: AR Antagonist Cell Assay (MMTV-luciferase reporter, DHT-induced); type: cell-based; settings: MDA-MB453-MMTV clone 54-19 cells, 100 pM DHT, 17 hr
T1 sequence (P10275 1-920 Q868H): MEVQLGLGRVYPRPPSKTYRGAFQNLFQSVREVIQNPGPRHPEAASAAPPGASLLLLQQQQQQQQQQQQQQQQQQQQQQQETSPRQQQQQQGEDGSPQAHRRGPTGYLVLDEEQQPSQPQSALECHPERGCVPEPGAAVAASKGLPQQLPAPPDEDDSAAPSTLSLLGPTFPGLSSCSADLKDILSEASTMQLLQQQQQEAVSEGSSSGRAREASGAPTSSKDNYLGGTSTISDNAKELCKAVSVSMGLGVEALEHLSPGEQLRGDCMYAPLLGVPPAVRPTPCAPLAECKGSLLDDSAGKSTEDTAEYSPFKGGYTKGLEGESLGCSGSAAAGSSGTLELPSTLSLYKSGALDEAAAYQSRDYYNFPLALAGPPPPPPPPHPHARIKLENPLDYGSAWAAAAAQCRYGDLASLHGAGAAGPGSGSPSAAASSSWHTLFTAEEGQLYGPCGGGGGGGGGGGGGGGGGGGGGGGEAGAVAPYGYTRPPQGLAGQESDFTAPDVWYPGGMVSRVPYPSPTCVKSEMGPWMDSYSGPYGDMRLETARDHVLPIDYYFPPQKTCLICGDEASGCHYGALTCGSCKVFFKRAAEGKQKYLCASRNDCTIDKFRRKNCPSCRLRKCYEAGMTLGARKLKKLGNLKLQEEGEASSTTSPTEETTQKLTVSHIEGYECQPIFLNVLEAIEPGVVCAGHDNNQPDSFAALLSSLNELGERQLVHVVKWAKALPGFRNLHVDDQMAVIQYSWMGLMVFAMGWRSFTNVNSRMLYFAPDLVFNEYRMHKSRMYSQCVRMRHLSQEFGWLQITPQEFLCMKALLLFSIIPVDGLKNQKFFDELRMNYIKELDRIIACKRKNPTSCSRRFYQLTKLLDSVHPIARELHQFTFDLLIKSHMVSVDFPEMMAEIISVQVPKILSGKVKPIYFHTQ
Protocol: The compounds ability to antagonize the effects of androgen on the androgen receptor were determined in the protocol described immediately below.
Experimental Procedure for AR Antagonist Cell Assay
Cell line: MDA-MB453-MMTV clone 54-19. This cell line is a stable transfected cell line with MDA-MB453 cell background (human breast tumor cell expressing high level of androgen receptor). A MMTV minimal promoter containing ARE was first cloned in front of a firefly luciferase reporter gene. Then the cascade was cloned into transfection vector pUV120puro. Electroporation method was used for transfecting MDA-MB-453 cell. Puromycin resistant stable cell line was selected.
Cell Culture Media and Reagents:
Culture medium: DMEM (high glucose, Gibco cat #: 11960-044), 10% FBS, and 1% L-glutamine
Plating medium: DMEM (phenol red free), 10% charcoal treated HyClone serum, 1% L-glutamine
Assay medium: DMEM (phenol red free), 1% charcoal treated HyClone serum, 1% L-glutamine, and 1% penicillin/streptomycin
3× luciferase buffer: 2% beta-mercaptoethanol, 0.6% ATP, 0.0135% luciferine in cell lysis buffer
• 1. Cells are maintained in culture medium, splitting cells when they reach 80–90% confluence • 2. To test compounds, 10,000 cells/well are plated to opaque 96 cell culture plate in 100 ul/well plating medium, culture for overnight at 37° C. in cell culture incubator • 3. Carefully remove plating medium, then add 80 ul/well of pre-warmed assay medium, add 10 ul/well testing compound (final concentration at 10 uM or 1 uM), incubate at 37° C. for 30 minutes • 4. Add 10 ul/well freshly prepared DHT (final concentration at 100 pM) to each well, incubate at 37° C. for 17 hr (overnight) • 5. Add 50 ul/well 3× luciferase buffer, incubate at room temperature for 5 minutes, then count on Luminometer The fold induction over background by 100 pM DHT in the absence of testing compounds is standardized as 100% and experimental result is expressed as percentage of inhibition by testing compounds. TABLE3

Structure (SMILES)	IC50
Cn1c(=O)cc(C(F)(F)F)c2cc(S(=O)(=O)Nc3cnc4ccccc4c3)ccc21 [Example 33, 1-Methyl-2-oxo-4-trifluoromethyl-1,2-dihydroquinoline-6-sulfonicacid quinolin-3-ylamide]	> 10 µM
Cn1c(=O)cc(C(F)(F)F)c2cc(S(=O)(=O)Nc3cccc4cccnc34)ccc21 [Example 34, 1-Methyl-2-oxo-4-trifluoromethyl-1,2-dihydroquinoline-6-sulfonicacid quinolin-8-ylamide]	> 10 µM
CSc1n[nH]c(NS(=O)(=O)c2ccc3c(c2)c(C(F)(F)F)cc(=O)n3C)c1C#N [Example 35, 1-Methyl-2-oxo-4-trifluoromethyl-1,2-dihydroquinoline-6-sulfonicacid (4-cyano-5-methylsulfanyl-2H-pyrazol-3-yl)amide]	> 10 µM
COc1cc(NS(=O)(=O)c2ccc3c(c2)c(C(F)(F)F)cc(=O)n3C)cc(OC)c1 [Example 36, 1-Methyl-2-oxo-4-trifluoromethyl-1,2-dihydroquinoline-6-sulfonicacid (3,5-dimethoxyphenyl)-amide]	2.72 µM
CC(C)Oc1cccc(NS(=O)(=O)c2ccc3c(c2)c(C(F)(F)F)cc(=O)n3C)c1 [Example 37, 1-Methyl-2-oxo-4-trifluoromethyl-1,2-dihydroquinoline-6-sulfonicacid (3-isopropoxyphenyl)-amide]	6.1 µM
Cn1c(=O)cc(C(F)(F)F)c2cc(S(=O)(=O)Nc3cccc(OC(F)F)c3)ccc21 [Example 38, 1-Methyl-2-oxo-4-trifluoromethyl-1,2-dihydroquinoline-6-sulfonicacid (3-difluoromethoxy-phenyl)amide]	5.63 µM
Cn1c(=O)cc(C(F)(F)F)c2cc(S(=O)(=O)Nc3cccc(C(F)(F)F)c3)ccc21 [Example 39, 1-Methyl-2-oxo-4-trifluoromethyl-1,2-dihydroquinoline-6-sulfonicacid (3-trifluoromethylphenyl)-amide]	0.93 µM
Cc1cc(=O)oc2cc(NS(=O)(=O)c3ccc4c(c3)c(C(F)(F)F)cc(=O)n4C)ccc12 [Example 40, 1-Methyl-2-oxo-4-trifluoromethyl-1,2-dihydroquinoline-6-sulfonic(4-methyl-2-oxo-2H-chromen-7-yl)amide]	> 10 µM
Cn1c(=O)cc(C(F)(F)F)c2cc(S(=O)(=O)Nc3cccc(OC(F)(F)F)c3)ccc21 [Example 41, 1-Methyl-2-oxo-4-trifluoromethyl-1,2-dihydroquinoline-6-sulfonicacid (3-trifluoromethoxy-phenyl)amide]	3.86 µM
CCOC(=O)Cc1ccc(NS(=O)(=O)c2ccc3c(c2)c(C(F)(F)F)cc(=O)n3C)cc1 [Example 42, [4-(1-Methyl-2-oxo-4-trifluoromethyl-1,2-dihydroquinoline-6-sulfonylamino)phenyl]aceticacid ethyl ester]	> 10 µM
Cn1c(=O)cc(C(F)(F)F)c2cc(S(=O)(=O)Nc3cccc(Cc4ccccc4)c3)ccc21 [Example 43, 1-Methyl-2-oxo-4-trifluoromethyl-1,2-dihydroquinoline-6-sulfonicacid (3-benzylphenyl)amide]	> 10 µM
CCOc1ccc(NS(=O)(=O)c2ccc3c(c2)c(C(F)(F)F)cc(=O)n3C)cc1 [Example 44, 1-Methyl-2-oxo-4-trifluoromethyl-1,2-dihydroquinoline-6-sulfonicacid (4-ethoxyphenyl)amide]	3.76 µM
Cn1c(=O)cc(C(F)(F)F)c2cc(S(=O)(=O)Nc3cc(C(C)(C)C)cc(C(C)(C)C)c3)ccc21 [Example 45, 1-Methyl-2-oxo-4-trifluoromethyl-1,2-dihydroquinoline-6-sulfonicacid (3,5-di-tert-butylphenyl)amide]	> 10 µM
COc1ccc(N(Cc2ccccc2)S(=O)(=O)c2ccc3c(c2)c(C(F)(F)F)cc(=O)n3C)cc1 [Example 46, 1-Methyl-2-oxo-4-trifluoromethyl-1,2-dihydroquinoline-6-sulfonicacid benzyl(4-methoxy-phenyl)amide]	> 10 µM
Cn1c(=O)cc(C(F)(F)F)c2cc(S(=O)(=O)Nc3ccc(-n4ccc(C(F)(F)F)n4)cc3)ccc21 [Example 47, 1-Methyl-2-oxo-4-trifluoromethyl-1,2-dihydroquinoline-6-sulfonicacid [4-(3-trifluoromethylpyrazol-1-yl)phenyl]amide]	2.96 µM
COc1cccc(NS(=O)(=O)c2ccc3c(c2)c(C(F)(F)F)cc(=O)n3C)c1 [Example 48, 1-Methyl-2-oxo-4-trifluoromethyl-1,2-dihydroquinoline-6-sulfonicacid (3-methoxyphenyl)amide]	1.13 µM
Cn1c(=O)cc(C(F)(F)F)c2cc(S(=O)(=O)NCCC(C)(C)C)ccc21 [Example 49, 1-Methyl-2-oxo-4-trifluoromethyl-1,2-dihydroquinoline-6-sulfonicacid (3,3-dimethylbutyl)amide]	> 10 µM
Cn1c(=O)cc(C(F)(F)F)c2cc(S(=O)(=O)NCCc3ccccc3)ccc21 [Example 50, 1-Methyl-2-oxo-4-trifluoromethyl-1,2-dihydroquinoline-6-sulfonicacid phenethylamide]	1.55 µM
Cc1ccc(CNS(=O)(=O)c2ccc3c(c2)c(C(F)(F)F)cc(=O)n3C)cc1 [Example 51, 1-Methyl-2-oxo-4-trifluoromethyl-1,2-dihydroquinoline-6-sulfonicacid 4-methylbenzylamide]	> 10 µM
Cc1ccccc1CNS(=O)(=O)c1ccc2c(c1)c(C(F)(F)F)cc(=O)n2C [Example 52, 1-Methyl-2-oxo-4-trifluoromethyl-1,2-dihydroquinoline-6-sulfonicacid 2-methylbenzylamide]	> 10 µM
Cn1c(=O)cc(C(F)(F)F)c2cc(S(=O)(=O)NCCC3=CCCCC3)ccc21 [Example 53, 1-Methyl-2-oxo-4-trifluoromethyl-1,2-dihydroquinoline-6-sulfonicacid (2-cyclohex-1-enylethyl)amide]	1.84 µM
Cn1c(=O)cc(C(F)(F)F)c2cc(S(=O)(=O)NCCc3cccs3)ccc21 [Example 54, 1-Methyl-2-oxo-4-trifluoromethyl-1,2-dihydroquinoline-6-sulfonicacid (2-thiophen-2-ylethyl)amide]	5.68 µM
Cn1c(=O)cc(C(F)(F)F)c2cc(S(=O)(=O)NC3CCc4ccccc43)ccc21 (stereo not drawn) [Example 55, 1-Methyl-2-oxo-4-trifluoromethyl-1,2-dihydroquinoline-6-sulfonicacid indan-1-ylamide]	4.31 µM
CC(CNS(=O)(=O)c1ccc2c(c1)c(C(F)(F)F)cc(=O)n2C)c1ccccc1 (stereo not drawn) [Example 56, 1-Methyl-2-oxo-4-trifluoromethyl-1,2-dihydroquinoline-6-sulfonicacid (2-phenylpropyl)amide]	2.73 µM
Cn1c(=O)cc(C(F)(F)F)c2cc(S(=O)(=O)NCCCCc3ccccc3)ccc21 [Example 57, 1-Methyl-2-oxo-4-trifluoromethyl-1,2-dihydroquinoline-6-sulfonicacid (4-phenylbutyl)amide]	> 10 µM
COc1ccccc1CCNS(=O)(=O)c1ccc2c(c1)c(C(F)(F)F)cc(=O)n2C [Example 58, 1-Methyl-2-oxo-4-trifluoromethyl-1,2-dihydroquinoline-6-sulfonicacid [2-(2-methoxyphenyl)ethyl]amide]	5.4 µM
Cn1c(=O)cc(C(F)(F)F)c2cc(S(=O)(=O)NCc3cc(Cl)ccc3F)ccc21 [Example 59, 1-Methyl-2-oxo-4-trifluoromethyl-1,2-dihydroquinoline-6-sulfonicacid 5-chloro-2-fluorobenzylamide]	> 10 µM
